Data as given in ChEMBL document CHEMBL4725382, “Uridine natural products: Challenging targets and inspiration for novel small molecule inhibitors” (Bioorg Med Chem, 2020).
≈ marks a conversion by molar mass, not a printed value.

Each compound was assayed on Mycobacterium tuberculosis (assay: Antimycobacterial activity against Mycobacterium tuberculosis H37Rv ATCC 27294 after 14 days by resazurin reduction microplate assay). Details: H37Rv ATCC 27294, 336 h.
Assay type: functional
For `CC(C)[C@H](NC(=O)N[C@@H](Cc1c[nH]c2ccccc12)C(=O)O)C(=O)N[C@H](C(=O)N/C=C1/C[C@@H](O)[C@H](n2ccc(=O)[nH]c2=O)O1)[C@H](C)N(C)C(=O)[C@@H](N)Cc1cccc(O)c1`, the MIC was 9.5 µM (≈ 7.9 µg/mL). `C[C@@H]([C@H](NC(=O)[C@H](CCCCN)NC(=O)N[C@@H](Cc1c[nH]c2ccccc12)C(=O)O)C(=O)NC[C@H]1C[C@@H](O)[C@H](n2ccc(=O)[nH]c2=O)O1)N(C)C(=O)CN` gave an MIC50 of 0.7 µM (≈ 0.53 µg/mL). `C[C@@H]([C@H](NC(=O)[C@H](CC1CCCCC1)NC(=O)N[C@@H](Cc1c[nH]c2ccccc12)C(=O)O)C(=O)NC[C@H]1C[C@@H](O)[C@H](n2ccc(=O)[nH]c2=O)O1)N(C)C(=O)CN` gave an MIC50 of 0.08 µM (≈ 0.0625 µg/mL). `CC(C)C[C@H](NC(=O)N[C@@H](Cc1c[nH]c2ccccc12)C(=O)O)C(=O)N[C@H](C(=O)NC[C@H]1C[C@@H](O)[C@H](n2ccc(=O)[nH]c2=O)O1)[C@H](C)N(C)C(=O)[C@@H](N)Cc1cccc(O)c1` gave an MIC50 of 0.3 µM (≈ 0.254 µg/mL). For `C[C@@H]([C@H](NC(=O)[C@H](CCc1ccccc1)NC(=O)N[C@@H](Cc1c[nH]c2ccccc12)C(=O)O)C(=O)NC[C@H]1C[C@@H](O)[C@H](n2ccc(=O)[nH]c2=O)O1)N(C)C(=O)CN`, the MIC50 was 1.08 µM (≈ 0.853 µg/mL). Work on `CC(C)C[C@H](NC(=O)N[C@@H](Cc1c[nH]c2ccccc12)C(=O)O)C(=O)N[C@H](C(=O)NC[C@H]1C[C@@H](O)[C@H](n2ccc(=O)[nH]c2=O)O1)[C@H](C)N(C)C(=O)[C@@H](N)C1CCCCC1` yielded an MIC50 of 1.1 µM (≈ 0.906 µg/mL). `C[C@@H]([C@H](NC(=O)[C@@H](NC(=O)N[C@@H](Cc1c[nH]c2ccccc12)C(=O)O)c1ccccc1)C(=O)NC[C@H]1C[C@@H](O)[C@H](n2ccc(=O)[nH]c2=O)O1)N(C)C(=O)CN` was tested, and the MIC50 was > 6.26 µM.

Each compound was assayed on Mycobacterium tuberculosis (assay: Antimycobacterial activity against Mycobacterium tuberculosis H37Rv). Details: not given.
Assay type: functional
Compound `CCCCCCCCCCCCCCCCCCNC(=O)C1=CCN(C)[C@@H]([C@H](O[C@@H]2O[C@H](CN)[C@@H](O)[C@H]2O)[C@H]2O[C@@H](n3ccc(=O)[nH]c3=O)[C@H](O)[C@@H]2O)C(=O)N1C` has an MIC of 0.98 µM (≈ 0.793 µg/mL). In the case of `CCCCCCCCCCCCCCCCCNC(=O)C1=CCN(C)[C@@H]([C@H](O[C@@H]2O[C@H](CN)[C@@H](O)[C@H]2O)[C@H]2O[C@@H](n3ccc(=O)[nH]c3=O)[C@H](O)[C@@H]2O)C(=O)N1C`, the MIC is reported as 0.98 µM (≈ 0.779 µg/mL). In the case of `CCCCCCc1ccc(NC(=O)C2=CCN(C)[C@@H]([C@H](O[C@@H]3O[C@H](CN)[C@@H](O)[C@H]3O)[C@H]3O[C@@H](n4ccc(=O)[nH]c4=O)[C@H](O)[C@@H]3O)C(=O)N2C)cc1`, the MIC is reported as 1.09 µM (≈ 0.781 µg/mL). Work on `CCCCCCCCCCCCCCCCNC(=O)C1=CCN(C)[C@@H]([C@H](O[C@@H]2O[C@H](CN)[C@@H](O)[C@H]2O)[C@H]2O[C@@H](n3ccc(=O)[nH]c3=O)[C@H](O)[C@@H]2O)C(=O)N1C` yielded an MIC of 0.98 µM (≈ 0.765 µg/mL). With `CCCCCCCCCCCCCCCCCCOC(=O)C1=CCN(C)[C@@H]([C@H](O[C@@H]2O[C@H](CN)[C@@H](O)[C@H]2O)[C@H]2O[C@@H](n3ccc(=O)[nH]c3=O)[C@H](O)[C@@H]2O)C(=O)N1C` the MIC was 8.45 µM (≈ 6.84 µg/mL). `CCCCCCCCCCCCNC(=O)C1=CCN(C)[C@@H]([C@H](O[C@@H]2O[C@H](CN)[C@@H](O)[C@H]2O)[C@H]2O[C@@H](n3ccc(=O)[nH]c3=O)[C@H](O)[C@@H]2O)C(=O)N1C` showed an MIC of 0.98 µM (≈ 0.71 µg/mL). Compound `CCCCOc1ccc(NC(=O)C2=CCN(C)[C@@H]([C@H](O[C@@H]3O[C@H](CN)[C@@H](O)[C@H]3O)[C@H]3O[C@@H](n4ccc(=O)[nH]c4=O)[C@H](O)[C@@H]3O)C(=O)N2C)cc1` has an MIC of 1.04 µM (≈ 0.733 µg/mL). Work on `CCCCCCCc1ccc(NC(=O)C2=CCN(C)[C@@H]([C@H](O[C@@H]3O[C@H](CN)[C@@H](O)[C@H]3O)[C@H]3O[C@@H](n4ccc(=O)[nH]c4=O)[C@H](O)[C@@H]3O)C(=O)N2C)cc1` yielded an MIC of 1.09 µM (≈ 0.797 µg/mL). `CCCCCCCCCCOC(=O)C1=CCN(C)[C@@H]([C@H](O[C@@H]2O[C@H](CN)[C@@H](O)[C@H]2O)[C@H]2O[C@@H](n3ccc(=O)[nH]c3=O)[C@H](O)[C@@H]2O)C(=O)N1C` showed an MIC of 8.45 µM (≈ 5.9 µg/mL). `CCCCCCCCCCNC(=O)C1=CCN(C)[C@@H]([C@H](O[C@@H]2O[C@H](CN)[C@@H](O)[C@H]2O)[C@H]2O[C@@H](n3ccc(=O)[nH]c3=O)[C@H](O)[C@@H]2O)C(=O)N1C` showed an MIC of 0.98 µM (≈ 0.683 µg/mL). Compound `CCCCc1ccc(NC(=O)C2=CCN(C)[C@@H]([C@H](O[C@@H]3O[C@H](CN)[C@@H](O)[C@H]3O)[C@H]3O[C@@H](n4ccc(=O)[nH]c4=O)[C@H](O)[C@@H]3O)C(=O)N2C)cc1` has an MIC of 1.09 µM (≈ 0.751 µg/mL). Work on `CCCCCNC(=O)C1=CCN(C)[C@@H]([C@H](O[C@@H]2O[C@H](CN)[C@@H](O)[C@H]2O)[C@H]2O[C@@H](n3ccc(=O)[nH]c3=O)[C@H](O)[C@@H]2O)C(=O)N1C` yielded an MIC of 0.98 µM (≈ 0.614 µg/mL). With `CN1C(=O)[C@H]([C@H](O[C@@H]2O[C@H](CN)[C@@H](O)[C@H]2O)[C@H]2O[C@@H](n3ccc(=O)[nH]c3=O)[C@H](O)[C@@H]2O)N(C)CC=C1C(=O)Nc1ccc(C2CCCCC2)cc1` the MIC was 2.18 µM (≈ 1.56 µg/mL). `CCCCCCCCCCCCCCCNC(=O)C1=CCN(C)[C@@H]([C@H](O[C@@H]2O[C@H](CN)[C@@H](O)[C@H]2O)[C@H]2O[C@@H](n3ccc(=O)[nH]c3=O)[C@H](O)[C@@H]2O)C(=O)N1C` gave an MIC of 0.98 µM (≈ 0.752 µg/mL). With `CCCCCCNC(=O)C1=CCN(C)[C@@H]([C@H](O[C@@H]2O[C@H](CN)[C@@H](O)[C@H]2O)[C@H]2O[C@@H](n3ccc(=O)[nH]c3=O)[C@H](O)[C@@H]2O)C(=O)N1C` the MIC was 0.98 µM (≈ 0.628 µg/mL). In the case of `CCCCOc1ccc(N)cc1`, the MIC is reported as 2.27 µM (≈ 0.375 µg/mL). Compound `CC/C=C\CCCCCCCCCCOC(=O)C1=CCN(C)[C@@H]([C@H](O[C@@H]2O[C@H](CN)[C@@H](O)[C@H]2O)[C@H]2O[C@@H](n3ccc(=O)[nH]c3=O)[C@H](O)[C@@H]2O)C(=O)N1C` has an MIC of 16.6 µM (≈ 12.5 µg/mL). Compound `CCCCCCCCCCCCc1ccc(NC(=O)C2=CCN(C)[C@@H]([C@H](O[C@@H]3O[C@H](CN)[C@@H](O)[C@H]3O)[C@H]3O[C@@H](n4ccc(=O)[nH]c4=O)[C@H](O)[C@@H]3O)C(=O)N2C)cc1` has an MIC of 1.09 µM (≈ 0.873 µg/mL). `CCCCCCCC/C=C\CCCCCCCCNC(=O)C1=CCN(C)[C@@H]([C@H](O[C@@H]2O[C@H](CN)[C@@H](O)[C@H]2O)[C@H]2O[C@@H](n3ccc(=O)[nH]c3=O)[C@H](O)[C@@H]2O)C(=O)N1C` gave an MIC of 3.88 µM (≈ 3.13 µg/mL). `CCCCCCCCCCCCCNC(=O)C1=CCN(C)[C@@H]([C@H](O[C@@H]2O[C@H](CN)[C@@H](O)[C@H]2O)[C@H]2O[C@@H](n3ccc(=O)[nH]c3=O)[C@H](O)[C@@H]2O)C(=O)N1C` was tested, and the MIC was 0.98 µM (≈ 0.724 µg/mL). With `CCCCCCCCCCCCCCCCCCCCNC(=O)C1=CCN(C)[C@@H]([C@H](O[C@@H]2O[C@H](CN)[C@@H](O)[C@H]2O)[C@H]2O[C@@H](n3ccc(=O)[nH]c3=O)[C@H](O)[C@@H]2O)C(=O)N1C` the MIC was 0.98 µM (≈ 0.82 µg/mL). For `CN1C(=O)[C@H]([C@H](O[C@@H]2O[C@H](CN)[C@@H](O)[C@H]2O)[C@H]2O[C@@H](n3ccc(=O)[nH]c3=O)[C@H](O)[C@@H]2O)N(C)CC=C1C(=O)NC1CCCCCCCCCCC1`, the MIC was 2.16 µM (≈ 1.56 µg/mL). `CO[C@@H]1[C@@H](OC)[C@H](C)O[C@@H](OC(=O)C[C@@H](C)CC(=O)O[C@@H](CCCCCCCCCCC(C)C)CC(=O)O[C@H]2CN(C)[C@@H]([C@H](O[C@@H]3O[C@H](CN)[C@@H](O)[C@H]3O)[C@H]3O[C@@H](n4ccc(=O)[nH]c4=O)[C@H](O)[C@@H]3O)C(=O)N(C)[C@@H]2C(=O)O)[C@@H]1OC` was tested, and the MIC was 2.73 µM (≈ 3.13 µg/mL). In the case of `CCCCCCCCCCCCCCCCCCCNC(=O)C1=CCN(C)[C@@H]([C@H](O[C@@H]2O[C@H](CN)[C@@H](O)[C@H]2O)[C@H]2O[C@@H](n3ccc(=O)[nH]c3=O)[C@H](O)[C@@H]2O)C(=O)N1C`, the MIC is reported as 0.98 µM (≈ 0.807 µg/mL). Compound `Nc1ccc(C2CCCCC2)cc1` has an MIC of 2.27 µM (≈ 0.398 µg/mL). For `CCCCCCCCCCCNC(=O)C1=CCN(C)[C@@H]([C@H](O[C@@H]2O[C@H](CN)[C@@H](O)[C@H]2O)[C@H]2O[C@@H](n3ccc(=O)[nH]c3=O)[C@H](O)[C@@H]2O)C(=O)N1C`, the MIC was 0.98 µM (≈ 0.697 µg/mL). In the case of `CCCCCCCCCNC(=O)C1=CCN(C)[C@@H]([C@H](O[C@@H]2O[C@H](CN)[C@@H](O)[C@H]2O)[C@H]2O[C@@H](n3ccc(=O)[nH]c3=O)[C@H](O)[C@@H]2O)C(=O)N1C`, the MIC is reported as 0.98 µM (≈ 0.669 µg/mL). `CCCCCCCCCCCCCOC(=O)C1=CCN(C)[C@@H]([C@H](O[C@@H]2O[C@H](CN)[C@@H](O)[C@H]2O)[C@H]2O[C@@H](n3ccc(=O)[nH]c3=O)[C@H](O)[C@@H]2O)C(=O)N1C` gave an MIC of 8.45 µM (≈ 6.25 µg/mL). In the case of `CCCCCCCOc1ccc(NC(=O)C2=CCN(C)[C@@H]([C@H](O[C@@H]3O[C@H](CN)[C@@H](O)[C@H]3O)[C@H]3O[C@@H](n4ccc(=O)[nH]c4=O)[C@H](O)[C@@H]3O)C(=O)N2C)cc1`, the MIC is reported as 0.98 µM (≈ 0.732 µg/mL). `CCc1ccc(NC(=O)C2=CCN(C)[C@@H]([C@H](O[C@@H]3O[C@H](CN)[C@@H](O)[C@H]3O)[C@H]3O[C@@H](n4ccc(=O)[nH]c4=O)[C@H](O)[C@@H]3O)C(=O)N2C)cc1` showed an MIC of 1.09 µM (≈ 0.72 µg/mL). `CCCCCCCCNC(=O)C1=CCN(C)[C@@H]([C@H](O[C@@H]2O[C@H](CN)[C@@H](O)[C@H]2O)[C@H]2O[C@@H](n3ccc(=O)[nH]c3=O)[C@H](O)[C@@H]2O)C(=O)N1C` was tested, and the MIC was 0.98 µM (≈ 0.655 µg/mL). In the case of `CCCCCCCCCCCCCCNC(=O)C1=CCN(C)[C@@H]([C@H](O[C@@H]2O[C@H](CN)[C@@H](O)[C@H]2O)[C@H]2O[C@@H](n3ccc(=O)[nH]c3=O)[C@H](O)[C@@H]2O)C(=O)N1C`, the MIC is reported as 0.98 µM (≈ 0.738 µg/mL). `CCCCCCCNC(=O)C1=CCN(C)[C@@H]([C@H](O[C@@H]2O[C@H](CN)[C@@H](O)[C@H]2O)[C@H]2O[C@@H](n3ccc(=O)[nH]c3=O)[C@H](O)[C@@H]2O)C(=O)N1C` showed an MIC of 0.98 µM (≈ 0.642 µg/mL). `CCCCCCCCCCCCCCCCCCCCCNC(=O)C1=CCN(C)[C@@H]([C@H](O[C@@H]2O[C@H](CN)[C@@H](O)[C@H]2O)[C@H]2O[C@@H](n3ccc(=O)[nH]c3=O)[C@H](O)[C@@H]2O)C(=O)N1C` was tested, and the MIC was 0.98 µM (≈ 0.834 µg/mL). With `CCCCc1ccc(N)cc1` the MIC was 2.27 µM (≈ 0.339 µg/mL). Work on `C=CCCCCCCCCCOC(=O)C1=CCN(C)[C@@H]([C@H](O[C@@H]2O[C@H](CN)[C@@H](O)[C@H]2O)[C@H]2O[C@@H](n3ccc(=O)[nH]c3=O)[C@H](O)[C@@H]2O)C(=O)N1C` yielded an MIC of 17.6 µM (≈ 12.5 µg/mL).
